Experimental data: US12599672B2, “KRAS proteolysis targeting chimeras” (PAQ Therapeutics Inc., priority 2023, dated 2026)

How the values were obtained:
Format in all cases: cell-based
[1] = target: T1, KRAS G12D (Homo sapiens, UniProt P01116, G12D); assay: KRAS G12D HiBit assay; conditions: AsPc-1-KRAS (G12D)-HiBit-KI cell, compound treatment for 24 hours, absolute DC50
T1 construct: AsPc-1-KRAS (G12D)-HiBit-KI cell (Pharmaron); host or cells: AsPc-1-KRAS (G12D)-HiBit-KI cells (HiBiT knock-in at the endogenous KRAS locus)
Procedure, shortened: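 HiBiT luminescence, detected by adding lytic buffer, substrate and LgBiT protein, served as the KRAS G12D read-out. Compounds, serially diluted 3-fold over 10 points from 0.3 mM DMSO stock, were on cells for 24 h; percent inhibition normalized to cells given 0.1% DMSO only.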

[2] = target: T2, KRAS G12V (Homo sapiens, UniProt P01116, G12V); assay: KRAS G12V HiBit assay; conditions: SW620-KRAS (G12V)-HiBit-KI cells, compound treatment for 24 hours
T2 construct: SW620-KRAS (G12V)-HiBit-KI cell (Pharmaron); host or cells: SW620-KRAS (G12V)-HiBit-KI cells (HiBiT knock-in at the endogenous KRAS locus)
Procedure, shortened: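 Luminescence from lytic Nano-Glo HiBiT detection with LgBiT read KRAS G12V levels after 24 h compound exposure. Dilutions were 10-point, 3-fold, from a 0.3 mM DMSO stock. Degradation activity was normalised to cells given 0.1% DMSO alone.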

[3] = target: T3, KRAS (Homo sapiens, UniProt P01116); assay: KRASamp MSD assay; conditions: KE39 (KRAS amplified) cells, treated with test compounds for 24 hr, MSD readout of KRAS degradation
T3 construct: endogenous in cells; host or cells: KE39 (KRAS amplified) cells
Procedure, shortened: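 Degradation DC50 derived by curve fitting, with KRAS levels quantified by MSD electrochemiluminescence (capture/detection antibodies, recombinant WT KRAS standard). Lysates prepared from KE39 cells (KRAS amplified) exposed to test compounds for 24 hr.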

T1 sequence (P01116 1-188 isoform P01116-2 G12D): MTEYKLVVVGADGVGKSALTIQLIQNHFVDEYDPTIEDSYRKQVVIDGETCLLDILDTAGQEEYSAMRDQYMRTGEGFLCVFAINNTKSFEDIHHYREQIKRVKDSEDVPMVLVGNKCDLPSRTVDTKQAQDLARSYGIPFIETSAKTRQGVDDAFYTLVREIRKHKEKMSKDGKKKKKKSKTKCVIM
T3 sequence (P01116 1-188 isoform P01116-2): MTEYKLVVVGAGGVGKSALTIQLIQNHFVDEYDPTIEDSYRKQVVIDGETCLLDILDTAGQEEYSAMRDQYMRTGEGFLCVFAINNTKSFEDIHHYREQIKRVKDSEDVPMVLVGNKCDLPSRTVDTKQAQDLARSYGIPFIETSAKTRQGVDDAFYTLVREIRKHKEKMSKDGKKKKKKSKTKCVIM
T2 sequence (P01116 1-188 isoform P01116-2 G12V): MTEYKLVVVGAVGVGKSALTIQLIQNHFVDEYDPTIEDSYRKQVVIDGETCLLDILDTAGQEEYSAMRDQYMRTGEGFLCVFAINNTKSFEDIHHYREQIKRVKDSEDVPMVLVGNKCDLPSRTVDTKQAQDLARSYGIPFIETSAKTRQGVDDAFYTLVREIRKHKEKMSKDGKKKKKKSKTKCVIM

Row | Compound | DC50 ([1]; class symbols) | DC50 ([2]; class symbols) | DC50 [3] | DC50 ([1]; numeric bounds given in place of class symbols) | DC50 ([2]; numeric bounds)
1 | CCc1c(F)ccc2cc(O)cc(-c3ncc4c(N5CCC[C@@](C)(O)C5)nc(OC[C@@]56CCCN5[C@H](COC(=O)N5CCC(CN7CCC(Cc8ccc9c(c8)n(C)c(=O)n9C8CCC(=O)NC8=O)CC7)CC5)CC6)nc4c3F)c12 (stereo partly drawn) [Compound 429, ((3S,7aS)-7a-(((7-(8-ethyl-7-fluoro-3-hydroxynaphthalen-1-yl)-8-fluoro-4-((R)-3-hydroxy-3-methylpiperidin-1-yl)pyrido[4,3-d]pyrimidin-2-yl)oxy)methyl)hexahydro-1H-pyrrolizin-3-yl)methyl 4-((4-((1-(2,6-dioxopiperidin-3-yl)-3-methyl-2-oxo-2,3-dihydro-1H-benzo[d]imidazol-5-yl)methyl)piperidin-1-yl)methyl)piperidine-1-carboxylate] | < 100 nM | < 10 nM | < 1 nM | – | –
2 | CCc1c(F)ccc2cc(O)cc(-c3ncc4c(N5CCC[C@@](C)(O)C5)nc(OC[C@@]56CCCN5[C@H](COC(=O)N5CCC(N7CCC(Cc8ccc9c(c8)n(C)c(=O)n9C8CCC(=O)NC8=O)CC7)CC5)CC6)nc4c3F)c12 (stereo partly drawn) [Compound 430, ((3S,7aS)-7a-(((7-(8-ethyl-7-fluoro-3-hydroxynaphthalen-1-yl)-8-fluoro-4-((R)-3-hydroxy-3-methylpiperidin-1-yl)pyrido[4,3-d]pyrimidin-2-yl)oxy)methyl)hexahydro-1H-pyrrolizin-3-yl)methyl 4-((1-(2,6-dioxopiperidin-3-yl)-3-methyl-2-oxo-2,3-dihydro-1H-benzo[d]imidazol-5-yl)methyl)-[1,4′-bipiperidine]-1′-carboxylate] | < 100 nM | 10 to 100 nM | 1 to 10 nM | – | –
3 | C#Cc1c(F)ccc2cc(O)cc(-c3ncc4c(N5CCCC(F)(F)C5)nc(OC[C@]56CCCN5[C@H](COC(=O)N5CCC(CN7CCC(c8ccc9c(c8)n(C)c(=O)n9C8CCC(=O)NC8=O)CC7)CC5)CC6)nc4c3F)c12 (stereo partly drawn) [Compound 431, ((3S,7aR)-7a-(((4-(3,3-difluoropiperidin-1-yl)-7-(8-ethynyl-7-fluoro-3-hydroxynaphthalen-1-yl)-8-fluoropyrido[4,3-d]pyrimidin-2-yl)oxy)methyl)hexahydro-1H-pyrrolizin-3-yl)methyl 4-((4-(1-(2,6-dioxopiperidin-3-yl)-3-methyl-2-oxo-2,3-dihydro-1H-benzo[d]imidazol-5-yl)piperidin-1-yl)methyl)piperidine-1-carboxylate] | – | < 10 nM | 1 to 10 nM | > 100 nM | –
4 | CCc1c(F)ccc2cc(O)cc(-c3ncc4c(N5CCC[C@@](C)(O)C5)nc(OC[C@@]56CCCN5[C@H](COC(=O)N5CCC(CN7CCC(c8ccc9c(c8)n(C)c(=O)n9C8CCC(=O)NC8=O)CC7)C5)CC6)nc4c3F)c12 (stereo partly drawn) [Compound 433, ((3S,7aS)-7a-(((7-(8-ethyl-7-fluoro-3-hydroxynaphthalen-1-yl)-8-fluoro-4-((R)-3-hydroxy-3-methylpiperidin-1-yl)pyrido[4,3-d]pyrimidin-2-yl)oxy)methyl)hexahydro-1H-pyrrolizin-3-yl)methyl 3-((4-(1-(2,6-dioxopiperidin-3-yl)-3-methyl-2-oxo-2,3-dihydro-1H-benzo[d]imidazol-5-yl)piperidin-1-yl)methyl)pyrrolidine-1-carboxylate] | < 100 nM | < 10 nM | 1 to 10 nM | – | –
5 | CCc1c(F)ccc2cc(O)cc(-c3ncc4c(N5CCC[C@@](C)(O)C5)nc(OC[C@@]56CCCN5[C@H](COC(=O)N5CCCC5CN5CCC(c7ccc8c(c7)n(C)c(=O)n8C7CCC(=O)NC7=O)CC5)CC6)nc4c3F)c12 (stereo partly drawn) [Compound 434, ((3S,7aS)-7a-(((7-(8-ethyl-7-fluoro-3-hydroxynaphthalen-1-yl)-8-fluoro-4-((R)-3-hydroxy-3-methylpiperidin-1-yl)pyrido[4,3-d]pyrimidin-2-yl)oxy)methyl)hexahydro-1H-pyrrolizin-3-yl)methyl 2-((4-(1-(2,6-dioxopiperidin-3-yl)-3-methyl-2-oxo-2,3-dihydro-1H-benzo[d]imidazol-5-yl)piperidin-1-yl)methyl)pyrrolidine-1-carboxylate] | < 100 nM | 10 to 100 nM | 1 to 10 nM | – | –
6 | CCc1c(F)ccc2cc(O)cc(-c3ncc4c(N5CCC[C@@](C)(O)C5)nc(OC[C@@]56CCCN5[C@H](COC(=O)N5CCC(CN7CCC(c8ccc9c(c8)n(C)c(=O)n9C8CCC(=O)NC8=O)C7)CC5)CC6)nc4c3F)c12 (stereo partly drawn) [Compound 435, ((3S,7aS)-7a-(((7-(8-ethyl-7-fluoro-3-hydroxynaphthalen-1-yl)-8-fluoro-4-((R)-3-hydroxy-3-methylpiperidin-1-yl)pyrido[4,3-d]pyrimidin-2-yl)oxy)methyl)hexahydro-1H-pyrrolizin-3-yl)methyl 4-((3-(1-(2,6-dioxopiperidin-3-yl)-3-methyl-2-oxo-2,3-dihydro-1H-benzo[d]imidazol-5-yl)pyrrolidin-1-yl)methyl)piperidine-1-carboxylate] | < 100 nM | 10 to 100 nM | 1 to 10 nM | – | –
7 | CCc1c(F)ccc2cc(O)cc(-c3ncc4c(N5CCC[C@@](C)(O)C5)nc(OC[C@@]56CCCN5[C@H](CN5CCC(CN7CCC(Cc8ccc9c(c8)n(C)c(=O)n9C8CCC(=O)NC8=O)CC7)CC5)CC6)nc4c3F)c12 (stereo partly drawn) [Compound 436, 3-(5-((1-((1-(((3S,7aS)-7a-(((7-(8-ethyl-7-fluoro-3-hydroxynaphthalen-1-yl)-8-fluoro-4-((R)-3-hydroxy-3-methylpiperidin-1-yl)pyrido[4,3-d]pyrimidin-2-yl)oxy)methyl)hexahydro-1H-pyrrolizin-3-yl)methyl)piperidin-4-yl)methyl)piperidin-4-yl)methyl)-3-methyl-2-oxo-2,3-dihydro-1H-benzo[d]imidazol-1-yl)piperidine-2,6-dione] | < 100 nM | 10 to 100 nM | 1 to 10 nM | – | –
8 | CCc1c(F)ccc2cc(O)cc(-c3ncc4c(N5CCCC(F)(F)C5)nc(OC[C@@]56CCCN5[C@H](COC(=O)N5CCC(CN7CCC(c8ccc9c(c8)n(C)c(=O)n9C8CCC(=O)NC8=O)CC7)CC5)CC6)nc4c3F)c12 (stereo partly drawn) [Compound 437, ((3S,7aS)-7a-(((4-(3,3-difluoropiperidin-1-yl)-7-(8-ethyl-7-fluoro-3-hydroxynaphthalen-1-yl)-8-fluoropyrido[4,3-d]pyrimidin-2-yl)oxy)methyl)hexahydro-1H-pyrrolizin-3-yl)methyl 4-((4-(1-(2,6-dioxopiperidin-3-yl)-3-methyl-2-oxo-2,3-dihydro-1H-benzo[d]imidazol-5-yl)piperidin-1-yl)methyl)piperidine-1-carboxylate] | < 100 nM | < 10 nM | < 1 nM | – | –
9 | Cn1c(=O)n(C2CCC(=O)NC2=O)c2ccc(C3CCN(C4CC5(CCN(C(=O)OC[C@@H]6CC[C@]7(COc8nc(N9CCC[C@@](C)(O)C9)c9cnc(-c%10cc(O)cc%11ccc(F)cc%10%11)c(F)c9n8)CCCN67)CC5)C4)CC3)cc21 (stereo partly drawn) [Compound 438, ((3S,7aS)-7a-(((8-fluoro-7-(7-fluoro-3-hydroxynaphthalen-1-yl)-4-((R)-3-hydroxy-3-methylpiperidin-1-yl)pyrido[4,3-d]pyrimidin-2-yl)oxy)methyl)hexahydro-1H-pyrrolizin-3-yl)methyl 2-(4-(1-(2,6-dioxopiperidin-3-yl)-3-methyl-2-oxo-2,3-dihydro-1H-benzo[d]imidazol-5-yl)piperidin-1-yl)-7-azaspiro[3.5]nonane-7-carboxylate] | < 100 nM | < 10 nM | < 1 nM | – | –
10 | CCc1c(F)ccc2cc(O)cc(-c3ncc4c(N5CCC[C@@](C)(O)C5)nc(OC[C@@]56CCCN5[C@H](COC(=O)N5CCC(CN7CCC(c8cccc9c8n(C)c(=O)n9C8CCC(=O)NC8=O)CC7)CC5)CC6)nc4c3F)c12 (stereo partly drawn) [Compound 440, ((3S,7aS)-7a-(((7-(8-ethyl-7-fluoro-3-hydroxynaphthalen-1-yl)-8-fluoro-4-((R)-3-hydroxy-3-methylpiperidin-1-yl)pyrido[4,3-d]pyrimidin-2-yl)oxy)methyl)hexahydro-1H-pyrrolizin-3-yl)methyl 4-((4-(1-(2,6-dioxopiperidin-3-yl)-3-methyl-2-oxo-2,3-dihydro-1H-benzo[d]imidazol-4-yl)piperidin-1-yl)methyl)piperidine-1-carboxylate] | < 100 nM | < 10 nM | 1 to 10 nM | – | –
11 | CCc1c(F)ccc2cc(O)cc(-c3ncc4c(N5CCC[C@@](C)(O)C5)nc(OC[C@]56CCCN5[C@H](CN5CCC(OCCCc7ccc8c(c7)n(C)c(=O)n8C7CCC(=O)NC7=O)CC5)CC6)nc4c3F)c12 (stereo partly drawn) [Compound 444, 3-(5-(3-((1-(((3S,7aR)-7a-(((7-(8-Ethyl-7-fluoro-3-hydroxynaphthalen-1-yl)-8-fluoro-4-((R)-3-hydroxy-3-methylpiperidin-1-yl)pyrido[4,3-d]pyrimidin-2-yl)oxy)methyl)hexahydro-1H-pyrrolizin-3-yl)methyl)piperidin-4-yl)oxy)propyl)-3-methyl-2-oxo-2,3-dihydro-1H-benzo[d]imidazol-1-yl) piperidine-2,6-dione] | < 100 nM | – | 1 to 10 nM | – | > 78.5 nM
